The values below come from US9849131B2 (AUTIFONY THERAPEUTICS LIMITED, priority 2009, dated 2017).

Assay [1] has as its system high voltage-activated potassium currents in MNTB neurons (presumed to be mediated by Kv3.1 channels). Put plainly: Potassium currents recorded from MNTB neurons, in vitro (Example 91). The format is cell-based, mouse. To be noted: 10 microM in the continuing presence of TEA (1 mM); voltage steps to +40 mV. As to the method: Male CBA/Ca mice (aged 12-16 days) were used in these experiments (in accordance with the UK Animals Scientific Procedures Act, 1986). Brain slices containing the medial nucleus of the trapezoid body (MNTB) were prepared as described previously (Brew and Forsythe, 2005).
Chemicals and reagents were purchased from Sigma, (Poole, UK) unless otherwise noted. EXAMPLE 19 was dissolved in DMSO and diluted in ACSF to the required concentration.
Recordings from identified MNTB neurons were conducted as previously described (Brew and Forsythe, 2005). Slices was placed in a superfusion chamber on an inverted microscope stage and continuously perfused with gassed (95% O2-5% CO2) ACSF at a rate of 1 ml min^−1 at room temperature. Whole-cell recordings were made from visually identified MNTB neurons using an […] amplifier (Molecular Devices, Union City, Calif., USA). Patch solution comprised (in mM) potassium gluconate (97.5), KCl (32.5), Hepes (40), EGTA (5), MgCl2 (1), Na2 phosphocreatin (5), pH 7.2 with KOH. Pipettes had resistances of 3-5 MΩ and series resistances were 6-10 MΩ (compensated by 70%, 10 μs lag). Access resistance was frequently monitored and the recording discarded if increases were more than 2 MΩ. […]

Assay [2] concerns common marmosets. Put plainly: Behaviour of the common marmoset on threatening human approach (Example 94). The format is in vivo. To be noted: for Number of Jumps / Number of postures: 2 minute test, mean ± sem. From the text: Central anxiolytic effects of a test compound can be assessed from the ability of the compound to reduce the characteristic defensive postures of marmosets in response to a threatening approach by a human. The test can also be used to assess the sedative or hypnotic effects of a test compound from its ability to reduce the number of jumps made by the animals. The study was based on the method described in Costall, B. et al (1988) Br. J. Pharmac. 95 p 475P. Laboratory-bred (GSK SpA, Italy) male and female common marmosets over 2 years of age, weighing 300-500 g were used in the study. The animals were caged in couples in a housing room maintained at 25±1° C., 60% humidity, and a 12 hour light/dark cycle (lights on at 0600, with 30 minutes simulated dawn and twilight). Both animals in each pair were involved in the test, which was carried out with the animals in their home cage.
The postures recorded in the test were those described by Costall et al supra; • Genital presenting (“Tail Posture”): the animal's back is turned to the observer with elevation of the tail to expose the genital region; • Scent-marking: the animal scent-marks the cage surfaces using circum-anal and circum-genital scent glands; • Slit-stare: the animal stares at the observer with flattened ear tufts and eyes reduced to “slits” • Arch-piloerection: the animal moves around the cage with arched back and full-body piloerection, failing to make eye contact with the observer
The number of jumps from the back of the cage to the cage front provided an index of locomotor activity, which could be used to assess the potential for a hypnotic effect, sedation, or locomotor stimulation produced by the test compound.

Assay [3] deals with Male CD-1 mice. Kind of assay: Psychostimulant (amphetamine)-induced hyperactivity in mice (Example 93). To be noted: mouse; for Total Distance Travelled (cm): 60 minutes, mean ± sem.
The mark [4] stands for this setting: 0.3 mg/kg p.o. 2 hours before test.
The mark [5] stands for this setting: 1 mg/kg p.o. 2 hours before test.
[6] abbreviates: 3 mg/kg p.o. 2 hours before test.

The structures appear in SMILES notation.

Take `CC[C@H]1NC(=O)N(c2ccc(Oc3ccc(C)c(OC)c3)nc2)C1=O` [Example 19, (5R)-5-ethyl-3-(6-{[4-methyl-3-(methyloxy)phenyl]oxy}-3-pyridinyl)-2,4-imidazolidinedione]: the “reversal of TEA-induced reduction of high voltage-activated potassium current amplitude” value in assay [1] was “reversed”. For the same molecule, the “Number of Jumps” value in assay [2] (setting [4]) was determined as 21.3 ± 2.7; in assay [2] (setting [5]), 15.3 ± 2.5; in assay [2] (setting [6]), 11.5 ± 1.9. Also, the figures for the Number of postures in assay [2] (setting [4]), in assay [2] (setting [5]) and in assay [2] (setting [6]) were 12.2 ± 1.03, 10.0 ± 1.2 and 9.7 ± 1.1, respectively. For the same molecule, the “effect on the number of jumps” value in assay [2] (1 mg/kg p.o.) and in assay [2] (3 mg/kg p.o.) was “significantly reduced” in each case. In addition, in assay [2] (any dose (0.3, 1, 3 mg/kg p.o.)), the “effects on postures” value is listed as “without any effects”. Also, the “effect on the increase in total distance travelled produced by amphetamine” value in assay [3] (30 mg/kg p.o.) was “significantly reduced”. For the same molecule, the “effect on the increase in locomotor activity induced by amphetamine” value in assay [3] (60 mg/kg p.o., similar to clozapine 3 mg/kg i.p.) is “further reduced”. Further, the “Total Distance Travelled (cm)” value in assay [3] (AMPH 2 mg/kg i.p. + compound 30 mg/kg p.o. 30 minutes before) is listed as 5790 ± 1436 cm; in assay [3] (AMPH 2 mg/kg i.p. + compound 60 mg/kg p.o. 30 minutes before), 1494 ± 378 cm.
